Entries after “also recorded” stand apart in the source; their conditions may differ.

The text below walks through data of patent US20100204205A1 (priority 2007, published 2010).

The nature of data set [1]: Example 1: tolerability study of mirtazapine and betahistine. Format: in vivo, normal, health subjects. The settings on record: 6 weeks of therapy, healthy subjects. The method, then: The subjects receive 2 capsules per day, one in the morning and one at bedtime. […] In a different dosage range, the subjects receive 3 capsules per day, one in the morning, one at noon and one at bedtime. […] In a different dosage range, the subjects receive 2 capsules per day, one in the morning and one at bedtime. […] All medications are administered in an over-encapsulated format that ensures blinding of study participants, staff and investigators. All subjects are scheduled to receive a total of 6 weeks of therapy, and are required to return to the clinics after 1, 2, 4 and 6 weeks of therapy. Patients are required to complete paper self-assessments, electronic diary assessments, computer based cognitive testing, as well as vital signs and weight assessments at the clinic visits.

For data set [2] the following is noted: administered IP or IV; cited from earlier work.
The conditions of data set [3]: in vivo; cited from earlier work.
The next data set addresses T1, 5HT3 serotonin receptors (Homo sapiens, UniProt P46098).
T1 sequence (P46098 24-478): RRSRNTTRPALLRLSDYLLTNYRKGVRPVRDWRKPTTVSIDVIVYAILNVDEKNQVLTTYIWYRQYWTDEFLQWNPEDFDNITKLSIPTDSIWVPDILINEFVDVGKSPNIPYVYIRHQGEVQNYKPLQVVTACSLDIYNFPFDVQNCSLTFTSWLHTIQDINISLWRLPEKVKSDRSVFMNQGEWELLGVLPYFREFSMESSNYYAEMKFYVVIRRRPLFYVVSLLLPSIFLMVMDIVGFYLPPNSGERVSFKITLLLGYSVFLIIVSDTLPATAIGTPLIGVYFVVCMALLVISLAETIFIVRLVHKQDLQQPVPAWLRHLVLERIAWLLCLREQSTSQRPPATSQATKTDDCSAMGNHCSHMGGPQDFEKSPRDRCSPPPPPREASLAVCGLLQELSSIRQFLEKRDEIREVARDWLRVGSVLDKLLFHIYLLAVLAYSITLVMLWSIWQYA
The settings on record: cited from earlier work.

A further data set has as its system alpha-2 receptors. The settings on record: cited from earlier work.
Data set [4] concerns muscarinic cholinergic receptors. The settings on record: cited from earlier work.
A further data set addresses reuptake of 5HT (Homo sapiens, UniProt P31645). The settings on record: cited from earlier work.
The test system of a further data set is 5HT2 receptors. The settings on record: cited from earlier work.
A further data set has as its target T2, 5HT1A receptors (Homo sapiens, UniProt P08908).
T2 sequence (P08908 1-422): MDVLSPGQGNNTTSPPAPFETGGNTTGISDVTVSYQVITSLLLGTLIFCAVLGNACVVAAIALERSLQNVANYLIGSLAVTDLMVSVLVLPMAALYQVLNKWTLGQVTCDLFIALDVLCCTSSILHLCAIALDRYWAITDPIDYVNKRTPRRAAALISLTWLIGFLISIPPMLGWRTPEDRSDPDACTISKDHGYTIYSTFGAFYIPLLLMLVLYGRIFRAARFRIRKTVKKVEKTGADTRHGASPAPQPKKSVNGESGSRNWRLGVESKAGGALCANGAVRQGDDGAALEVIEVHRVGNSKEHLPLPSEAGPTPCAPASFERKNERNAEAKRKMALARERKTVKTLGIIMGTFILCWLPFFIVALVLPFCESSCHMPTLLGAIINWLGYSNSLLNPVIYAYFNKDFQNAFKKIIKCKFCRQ
The settings on record: cited from earlier work.

In a further data set the target is histamine H1 receptors (Homo sapiens, UniProt P35367). The settings on record: cited from earlier work.
Sequence of histamine H1 receptors (P35367 whole entry): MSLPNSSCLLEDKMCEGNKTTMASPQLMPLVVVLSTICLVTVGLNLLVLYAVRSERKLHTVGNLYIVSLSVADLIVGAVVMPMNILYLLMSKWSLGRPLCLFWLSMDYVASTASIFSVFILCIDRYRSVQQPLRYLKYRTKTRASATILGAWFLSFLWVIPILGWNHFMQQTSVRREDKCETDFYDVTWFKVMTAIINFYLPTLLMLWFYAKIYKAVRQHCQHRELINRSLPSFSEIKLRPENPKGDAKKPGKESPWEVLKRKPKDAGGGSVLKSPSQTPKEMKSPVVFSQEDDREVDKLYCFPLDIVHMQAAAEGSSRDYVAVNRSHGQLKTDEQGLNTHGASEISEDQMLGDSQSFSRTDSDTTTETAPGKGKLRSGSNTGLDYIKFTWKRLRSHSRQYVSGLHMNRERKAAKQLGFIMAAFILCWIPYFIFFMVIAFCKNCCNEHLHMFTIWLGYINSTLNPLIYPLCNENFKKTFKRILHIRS
A further data set deals with reuptake of dopamine (Homo sapiens, UniProt Q01959). The settings on record: cited from earlier work.
Sequence of reuptake of dopamine (Q01959 whole entry): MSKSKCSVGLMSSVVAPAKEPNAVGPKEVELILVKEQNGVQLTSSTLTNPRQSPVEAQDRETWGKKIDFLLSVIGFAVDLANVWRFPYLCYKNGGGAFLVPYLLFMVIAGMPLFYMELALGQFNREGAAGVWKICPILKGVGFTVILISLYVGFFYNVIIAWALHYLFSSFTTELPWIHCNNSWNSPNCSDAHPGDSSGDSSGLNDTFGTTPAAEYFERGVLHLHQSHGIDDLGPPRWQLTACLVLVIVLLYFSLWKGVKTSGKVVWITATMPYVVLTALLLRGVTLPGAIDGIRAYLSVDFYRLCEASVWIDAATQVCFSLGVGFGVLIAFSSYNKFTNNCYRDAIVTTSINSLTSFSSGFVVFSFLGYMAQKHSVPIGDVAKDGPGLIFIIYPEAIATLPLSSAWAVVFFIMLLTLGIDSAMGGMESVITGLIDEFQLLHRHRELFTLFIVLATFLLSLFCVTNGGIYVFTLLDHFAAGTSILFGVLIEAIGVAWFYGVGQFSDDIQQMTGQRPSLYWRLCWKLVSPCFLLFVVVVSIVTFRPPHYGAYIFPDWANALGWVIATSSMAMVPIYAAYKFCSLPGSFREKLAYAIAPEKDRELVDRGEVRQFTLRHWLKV
Another data set concerns the target 5HT1B receptors (Homo sapiens, UniProt P28222). The settings on record: cited from earlier work.
For data set [5], the system named is alpha-1 adrenergic receptors. The note with it: cited from earlier work.
For data set [6], the target named is 5HT2A serotonin receptors (Homo sapiens, UniProt P28223). The note with it: cited from earlier work.
Sequence of 5HT2A serotonin receptors (P28223 whole entry): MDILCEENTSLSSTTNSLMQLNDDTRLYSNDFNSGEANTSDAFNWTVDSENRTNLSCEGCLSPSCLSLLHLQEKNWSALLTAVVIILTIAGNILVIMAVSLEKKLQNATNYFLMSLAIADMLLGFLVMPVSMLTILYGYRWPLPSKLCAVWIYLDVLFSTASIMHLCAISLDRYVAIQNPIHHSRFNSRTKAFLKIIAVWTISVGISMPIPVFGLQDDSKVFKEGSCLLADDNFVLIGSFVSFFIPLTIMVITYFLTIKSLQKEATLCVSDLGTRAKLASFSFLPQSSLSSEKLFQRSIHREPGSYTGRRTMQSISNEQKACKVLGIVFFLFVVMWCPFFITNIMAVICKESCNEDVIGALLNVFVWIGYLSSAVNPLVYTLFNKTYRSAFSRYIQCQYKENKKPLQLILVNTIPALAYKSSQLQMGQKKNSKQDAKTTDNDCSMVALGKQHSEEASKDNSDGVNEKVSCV
The target in a further data set is norepinephrine reuptake (Homo sapiens, UniProt P23975). The settings on record: cited from earlier work.
Sequence of norepinephrine reuptake (P23975 whole entry): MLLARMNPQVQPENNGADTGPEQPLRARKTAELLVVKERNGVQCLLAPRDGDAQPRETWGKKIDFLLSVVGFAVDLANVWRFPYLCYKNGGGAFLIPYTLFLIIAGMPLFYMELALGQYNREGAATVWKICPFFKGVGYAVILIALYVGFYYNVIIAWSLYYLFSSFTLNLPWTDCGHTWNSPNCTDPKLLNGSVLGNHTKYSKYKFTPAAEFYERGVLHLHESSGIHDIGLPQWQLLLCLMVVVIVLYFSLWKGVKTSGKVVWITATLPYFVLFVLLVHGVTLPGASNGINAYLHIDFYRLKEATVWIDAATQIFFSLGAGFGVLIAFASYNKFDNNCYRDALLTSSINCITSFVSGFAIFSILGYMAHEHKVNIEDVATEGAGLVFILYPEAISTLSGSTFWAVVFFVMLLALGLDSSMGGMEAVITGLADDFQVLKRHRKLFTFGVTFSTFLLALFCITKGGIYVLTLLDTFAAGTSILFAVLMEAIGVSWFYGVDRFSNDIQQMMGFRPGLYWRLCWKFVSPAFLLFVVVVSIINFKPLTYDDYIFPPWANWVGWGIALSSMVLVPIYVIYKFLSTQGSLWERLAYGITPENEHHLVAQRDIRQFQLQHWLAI
The target in data set [7] is T3, 5HT2C serotonin receptors (Homo sapiens, UniProt P28335).
T3 sequence (P28335 33-458): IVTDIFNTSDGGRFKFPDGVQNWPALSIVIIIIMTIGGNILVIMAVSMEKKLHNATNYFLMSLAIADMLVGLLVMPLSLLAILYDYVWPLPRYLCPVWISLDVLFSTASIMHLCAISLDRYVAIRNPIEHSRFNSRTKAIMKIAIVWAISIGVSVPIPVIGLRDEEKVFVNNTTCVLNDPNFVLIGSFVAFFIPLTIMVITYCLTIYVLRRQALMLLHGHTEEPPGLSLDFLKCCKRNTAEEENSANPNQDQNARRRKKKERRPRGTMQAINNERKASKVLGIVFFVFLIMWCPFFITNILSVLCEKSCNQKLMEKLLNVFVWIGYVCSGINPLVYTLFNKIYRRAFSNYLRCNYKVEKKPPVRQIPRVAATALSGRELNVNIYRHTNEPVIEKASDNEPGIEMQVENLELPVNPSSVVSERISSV
The note with it: cited from earlier work.

The conditions of data set [8]: controlled studies; cited from earlier work.

Sequence of 5HT1B receptors (P28222 whole entry): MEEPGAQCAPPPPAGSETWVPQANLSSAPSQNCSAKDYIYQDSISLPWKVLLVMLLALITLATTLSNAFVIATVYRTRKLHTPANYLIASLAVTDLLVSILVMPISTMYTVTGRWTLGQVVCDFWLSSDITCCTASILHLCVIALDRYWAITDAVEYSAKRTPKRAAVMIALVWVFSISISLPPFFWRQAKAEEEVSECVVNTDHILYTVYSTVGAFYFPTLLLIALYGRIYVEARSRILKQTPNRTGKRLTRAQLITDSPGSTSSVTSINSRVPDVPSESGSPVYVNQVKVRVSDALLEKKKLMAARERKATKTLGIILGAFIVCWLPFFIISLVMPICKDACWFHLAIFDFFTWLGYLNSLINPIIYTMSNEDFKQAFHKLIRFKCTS
Sequence of reuptake of 5HT (P31645 whole entry): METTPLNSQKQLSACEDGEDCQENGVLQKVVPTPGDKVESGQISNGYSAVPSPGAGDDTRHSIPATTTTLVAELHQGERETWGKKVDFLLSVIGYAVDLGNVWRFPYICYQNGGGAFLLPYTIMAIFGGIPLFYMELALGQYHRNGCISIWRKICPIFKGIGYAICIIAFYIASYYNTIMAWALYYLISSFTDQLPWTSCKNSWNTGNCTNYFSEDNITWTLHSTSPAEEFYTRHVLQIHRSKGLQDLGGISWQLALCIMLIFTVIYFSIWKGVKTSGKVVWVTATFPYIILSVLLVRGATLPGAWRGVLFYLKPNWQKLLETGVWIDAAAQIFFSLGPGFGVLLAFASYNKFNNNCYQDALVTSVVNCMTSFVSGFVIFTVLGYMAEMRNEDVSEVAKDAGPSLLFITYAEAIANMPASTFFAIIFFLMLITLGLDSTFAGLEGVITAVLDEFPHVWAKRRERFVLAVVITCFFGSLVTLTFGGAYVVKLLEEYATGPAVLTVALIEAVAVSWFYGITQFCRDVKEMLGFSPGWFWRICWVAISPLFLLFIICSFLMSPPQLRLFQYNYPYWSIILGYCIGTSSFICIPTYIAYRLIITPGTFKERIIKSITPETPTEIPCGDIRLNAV

On to `CNCCc1ccccn1` [betahistine, 2-[2-(methylamino)ethyl]pyridine], for which, in [1], the side effects result was “causes insomnia, nausea/vomiting, and weight loss”. In [2], the food intake entry is given as “marginally inhibit food intake” and the satiety signaling entry was “increase the satiety signaling”. The blood-brain barrier passage result in data set [3] is reported as “crosses the blood-brain barrier”.
On to `CN1CCN2c3ncccc3Cc3ccccc3C2C1` (centres unmarked) [mirtazapine, 1,2,3,4,10,14b-hexahydro-2-methylpyrazino[2,1-a]pyrido[2,3-c]benzazepine], for which the “antagonist activity at 5HT3 serotonin receptors” value at 5HT3 serotonin receptors is on record as “potent antagonist”. Further, the side effects entry in [1] is “does cause weight gain, sedation, and cognitive deficits”. In addition, in the data set on alpha-2 receptors, the “antagonist activity at central alpha-2 receptors” value is given as “potent antagonist”. In addition, the “antagonist activity at muscarinic cholinergic receptors” value in data set [4] was “moderate antagonist; also recorded: weak antagonist”. Besides, the “effect on the reuptake of 5HT” value on reuptake of 5HT is “no effect”. Also, the “antagonist activity at 5HT2 receptors” value with 5HT2 receptors is “potent antagonist”. Also, the “affinity for the 5HT1A receptors” value at 5HT1A receptors is reported as “lacks significant affinity”. Moreover, the “antagonist activity at histamine H1 receptors” value at histamine H1 receptors is reported as “potent antagonist”. The “effect on the reuptake of dopamine” value at reuptake of dopamine is “no effect”. Moreover, the “affinity for the 5HT1B receptors” value at 5HT1B receptors is reported as “lacks significant affinity”. Also, the “antagonist activity at alpha-1 adrenergic receptors” value in data set [5] is “moderate; also recorded: weak antagonist”. Besides, in [6], the “antagonist activity at 5HT2A serotonin receptors” value is “potent antagonist”. Also, the “inhibition of norepinephrine reuptake” value at norepinephrine reuptake is reported as “very weak inhibitor”. In addition, in [7], the “antagonist activity at 5HT2C serotonin receptors” value is “potent antagonist”.
Turning to `CN(C)CCC=C1c2ccccc2CCc2ccccc21` [amitriptyline], in data set [8], the “appetite increase reported, share of patients” value is listed as 6% and the “weight gain of greater than or equal to 7% of body weight, share of patients” value is recorded as 5.9%.
